Results reported in US8669250B2, “Derivatives of aryl-{4-halogeno-4-[aminomethyl]-piperidin-1-yl}-methanone, their method of preparation and their use as medicinal products” (Pierre Fabre Medicament, priority 2009, dated 2014).
“Also recorded” adds a separate entry of the source.

How the values were obtained:
[1] = tested on: rats, oxaliplatine-induced allodynia; test: Oxaliplatine test, von Frey (analgesic activity, pathological pain); assay type: in vivo; settings: rat, i.p.
Source text: (§1) The physiological pain model chosen by the inventors to determine the analgesic activity of the compounds of the invention uses excess nociceptive stimuli (injection of formol) to cause a painful sensation in animal (Eur. J. Pharmacol. 2001, 421, 109). For the so-called pathological pain model in animal, the inventors chose to use pain induced by the injection of a cytotoxic agent such as oxaliplatine (Eur. J. Cancer 2007, 2658).
The rats (Male Sprague Dawley rats (ICO: OFA SD [IOPS], Iffa Credo, France) are tested a first time on the Friday to determine their mechanical sensitivity threshold (von Frey test). They are then given an intra-peritoneal injection (i.p.) of oxaliplatine (anticancer treatment causing neuropathic pain in patients) at a dose of 8 mg/kg. This dose in rat induces neuropathy which translates as mechanical hypersensitivity (allodynia) which develops 3 days after the injection with a peak on day five. For the study of the compounds of the invention, the animals are re-tested on day five, 15 min after administration of the compound via intra-peritoneal route.
The pressure force is then measured (in g) at which withdrawal of the paw of the animals is observed.

[2] = tested on: rats, formol-induced pain; test: Formol test (analgesic activity, physiological pain); assay type: in vivo; settings: rat, i.p.
Source text: as §1
The rats (Male Sprague Dawley rats (ICO: OFA SD [IOPS], Iffa Credo, France) are placed in plexiglass observation boxes above an angled mirror so as to facilitate observation of the hind paws. After thirty minutes of habituation, the animals are given an injection of formol diluted to 2.5% on the plantar surface of the right hind paw. The injection of formol produces behavioural responses which occur in two phases:
an acute phase, from 0 to 5 min after injection of the formol, corresponding to stimulation of receptors specialized in the transmission of pain messages to the spinal cord.
a late phase which occurs 20 to 30 min after the injection. This phase corresponds to stimulation of receptors by inflammatory mediators and/or to hyper-excitability of the dorsal horn induced during the first phase. This late phase therefore involves central sensitization.
For the study of the compounds of the invention we selected two expressions of painful behaviour and chose two periods of observation which correspond to the two pain phases (i.e. 0-5 min and 22.5-27.5 min). During these two 5-min periods the animals are observed every 30 seconds and are given scores for the following behaviours: paw licking or not of the injected paw, and lifting or non-lifting of the injected paw. Ten observations give a maximum score of 10 for each parameter for each of the 2 phases. The products of the invention are administered via intraperitoneal route 15 min before the injection of formol.
(§2) Quantification of the effect of the compounds of the invention on the forced swimming tests and on the formol test is conducted by one-factor variance analysis between groups (ANOVA analysis) followed by a multiple comparison test (Dunnett's test) versus control animals. The ED50 value is calculated using Litchfield and Wilcoxon analysis from the percentage of responding animals.
For this test, the animals are observed every 30 seconds during two periods of 5 min. The following behaviours are noted: paw licking or not of the injected paw, and paw lifting or not of the injected paw. Ten observations give a maximum score of 10 for each parameter for each of the 2 phases, measuring either paw lifting or paw licking. This test was also performed by comparison with administration of the vehicle (veh) alone.

5-HT1A receptor = target: T1, 5-HT1A receptor (Rattus norvegicus, UniProt P19327); test: Affinity for 5-HT1A receptors, shift of (3H)8-OH-DPAT in rat cerebral cortex; assay type: binding; settings: mean of at least 3 experiments, read-out: 5-HT1A affinity (pKi) (converted)
T1 construct: the cerebral cortex is sampled and homogenized in 20 volumes of buffer; from tissue; host or cells: rat cerebral cortex homogenate (membranes)
T1 sequence (P19327 1-422): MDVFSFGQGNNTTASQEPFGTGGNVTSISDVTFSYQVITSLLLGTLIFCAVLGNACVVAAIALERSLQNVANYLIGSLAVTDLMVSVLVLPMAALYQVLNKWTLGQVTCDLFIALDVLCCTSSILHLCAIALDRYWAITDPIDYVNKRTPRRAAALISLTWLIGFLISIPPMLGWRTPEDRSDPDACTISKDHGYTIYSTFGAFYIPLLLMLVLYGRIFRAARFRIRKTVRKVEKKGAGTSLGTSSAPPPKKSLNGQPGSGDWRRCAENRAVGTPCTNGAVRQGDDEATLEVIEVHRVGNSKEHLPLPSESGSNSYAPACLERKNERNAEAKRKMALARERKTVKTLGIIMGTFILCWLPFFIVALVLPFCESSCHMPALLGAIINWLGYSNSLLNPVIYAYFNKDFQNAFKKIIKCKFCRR
Procedure: (§3) The affinity of the compounds of the invention for the rat 5-HT1A receptor was measured conventionally from competitive experiments with a radiolabelled 5-HT1A agonist. […] This test is widely used since it is predictive of antidepressant action in man. Analgesic activity was determined after intra-peritoneal administration to rats, both with a physiological pain model and a pathological pain model. By physiological pain, the inventors designate pain whose origin is a lesion and/or organic ill-function such as pain caused by excessive nociceptive stimuli.
The in vitro affinity of the compounds of the invention for the 5-HT1A receptors was determined by measuring the shift of (^3H)8-OH-DPAT (agonist of 5HT1A receptors labelled with tritium, TRK 850; 160-240 Ci/mmole).
The study on binding with the 5-HT1A receptor was conducted as described in Naunyn-Schmiedeberg's Arch. Pharmaco. 1991, 343, 106. For these experiments, rat cerebral cortices were used. After unfreezing the brain in Tris-HCl buffer 50 mmol, pH=7.40 at 25° C., the cerebral cortex is sampled and homogenized in 20 volumes of buffer held at 4° C. The homogenate is centrifuged at 39000 g for 10 min, the centrifuge residue is suspended in the same volume of buffer and again centrifuged. After further suspension under the same conditions, the homogenate is incubated for 10 min at 37° C. then again centrifuged. The final residue is suspended in cold reaction buffer Tris-HCl 50 mmol, pH=7.40 at 25° C. containing […] of pargyline, 4 mmol of CaCl2 and 0.10% ascorbic acid. The final concentration of the tissue in the incubation medium is 10 mg/tube.
The reaction tubes contain 0.10 mL of (^3H)8-OH-DPAT (final […]), 0.10 mL of product to be tested 6-7 concentrations and 0.80 mL of tissue. Non-specific binding is defined using […] of 5-HT. The reaction tubes are incubated at 23° C. for 30 min then their content is rapidly vacuum filtered through Whatman GF/B filters, the tubes are rinsed with 2×5 mL of Tris-HCl buffer 50 mmol, pH=7.4 at 25° C. Radioactivity is collected on the filter and analyzed by liquid scintillation by adding 4 mL of scintillating liquid (Emulsifier Safe, Packard). All experiments were performed in triplicate.
The inhibition constants (Ki) of the products of the invention are estimated from shift experiments using the non-linear regression programme RADLIG version 4 by EBDA (Equilibrium Binding Data Analysis Biosoft, Cambridge, UK, Mc Pherson, 1985). The dissociation constant of the radioactive ligand used for calculations is […] for (^3H)8-OH-DPAT. The values of pKi (−log Ki) are given in the form mean±SEM of at least 3 experiments.

[3] = tested on: rats, forced swimming immobility; test: Forced swimming test (antidepressant activity); assay type: in vivo; settings: rat, oral
Procedure: as §3
The rats (Male Sprague Dawley rats (ICO: OFA SD [IOPS], Iffa Credo, France), are placed in a cylinder (45 cm high and 20 cm in diameter) filled with water at 25° C.±0.5 up to a height of 17 cm. This depth allows rats to swim or float without their tail touching the bottom of the cylinder.
24 h before the test day, the rats are placed in the cylinder for 15 min, a lapse of time after which they no longer attempt to escape and remain immobile. On the test day the animals are replaced in the cylinder and the duration of animal immobility is measured by direct observation followed by verification of an audiovisual recording for 5 min. The products of the invention are administered by oral route 60 min before the test. A rat is considered to be immobile if it allows itself to float and only makes small movements to remain on the surface. Two rats are observed at the same time.
as §2

O=C(c1ccc(F)c(Cl)c1)N1CCC(F)(CNCC2CNc3ccccc3O2)CC1 (single isomer, unassigned; (-)) [Compound 1a1, (−)-(3-Chloro-4-fluoro-phenyl)-{4-fluoro-4-[(3,4-dihydro-2H-1,4-benzoxazine-2-methanamino)-methyl]-pipéridin-1-yl}-methanone]
dose on and after which full analgesia is obtained ([1]; day five after oxaliplatine, von Frey): ≥ 0.04 mg/kg | effect on allodynia, in words ([1]; dose range): dose-dependent inhibition of allodynia | ED50 ([2]; ip, 15 min before formol, read-out: ED50, inhibition of paw lifting): 0.05 mg/kg | effect on paw lifting and paw licking, in words ([2]; acute and late phases): dose-dependent inhibition of the 2 measured parameters; also recorded: Full analgesia is obtained irrespective of the pain phase | Ki (5-HT1A receptor): 1.02 nM | dose on and after which none of the animals remains immobile [3]: ≥ 10 mg/kg | ED50 ([3]; 60 min before test, read-out: ED50, reduction of immobility time): 0.08 mg/kg | effect on animal immobility time ([3]; dose range): reducing the animal's immobility time in dose-dependent fashion
